The values that follow are results of earlier work, collected in PMC8309005, “Novel Non-Congeneric Derivatives of the Choline Kinase Alpha Inhibitor ICL-CCIC-0019” (Pharmaceutics, 2021).

The subject of one data set is NIH3T3. Also on record: method as in PMID 22278967, PMID 9393874. The following applies: cited from earlier work.
In the next data set the test system is SKBR3. Also on record: method as in PMID 22278967, PMID 9393874. The following applies: cited from earlier work.
The subject of a further data set is CHKA. Also on record: method as in ref 18, 25 (HC-3), 20, 21 (MN58B), 23 (RSM-932A). As to conditions: CHKA inhibitors of Figure 1; 25 (HC-3), 20, 21 (MN58B), 23 (RSM-932A); cited from earlier work.
For a further data set, the system named is HT-29. Set-up: method as in ref 20, 21 (MN58B), 23 (RSM-932A). As to conditions: 21 (MN58B), 23 (RSM-932A); cited from earlier work.
A further data set deals with MCF-7. Set-up: method as in PMID 12678804, PMID 10397253. The following applies: cited from earlier work.
The test system of the next data set is HeLa. Also on record: method as in ref 20, 21 (MN58B), 23 (RSM-932A). The following applies: 21 (MN58B), 23 (RSM-932A); cited from earlier work.
In another data set the test system is A431. Also on record: method as in PMID 12678804, PMID 10397253. The following applies: cited from earlier work.
In another data set the test system is HepG2. Set-up: method as in PMID 25487918. As to conditions: cited from earlier work.

Take `C[N+]1(C)CCOC(O)(c2ccc(-c3ccc(C4(O)C[N+](C)(C)CCO4)cc3)cc2)C1` (stereo not drawn) [HC-3, Hemicholinium-3]: the figures for the GI50 in the data set with NIH3T3 and with SKBR3 were 600000 nM and above 500000 nM, respectively. Moreover, the IC50 (in general, the concentration that inhibits the measured activity by half) in the data set with CHKA was 950 nM.

For the compound `CN(C)c1cc[n+](Cc2ccc(CCCCc3ccc(C[n+]4ccc(N(C)C)cc4)cc3)cc2)cc1` [MN58B], the GI50 (in general, the concentration at which growth is held to half of that of the control) with HT-29 is 1400 nM; in the data set with MCF-7, 600 nM; in the data set on HeLa, 1200 nM; in the data set with A431 it was 2100 nM. The IC50 in the data set with CHKA is 1400 nM.

Regarding `C/[N+](c1ccc(Cl)cc1)=c1\ccn(Cc2ccc(-c3ccc(Cn4cc/c(=[N+](/C)c5ccc(Cl)cc5)c5ccccc54)cc3)cc2)c2ccccc12` [RSM-932A], the GI50 in the data set with HT-29 was 1300 nM; in the data set on HepG2, 1300 nM; in the data set with HeLa, 1000 nM. Also, the IC50 in the data set on CHKA was 1000 nM.
